This note sets out measurements from BindingDB's records for doi:10.1016/j.bmcl.2009.03.129 (Wyeth Research, 2009).

This test has as its target 3-phosphoinositide-dependent protein kinase 1 (PDPK1) (Homo sapiens) (UniProt O15530). Kind of test: Inhibition of PDK1.

The structures appear in SMILES notation. Some results are limits rather than exact numbers.

For `CCOC(=O)c1cnn2c(-c3cccc(NC(=O)c4cccc(C(F)(F)F)c4)c3)ccnc12` [ethyl 7-(3-(3-(trifluoromethyl)benzamido)phenyl)pyrazolo[1,5-a]pyrimidine-3-carboxylate], the IC50 was above 10 µM.

Usually IC50 stands for the concentration that gives 50% inhibition.
